Experimental data as given in patent publication US12187758B2 (ROME Therapeutics, Inc., priority 2022, dated 2025).

What was measured:
Assay type in all cases: cell-based
THP1-Dual KO-TREX1 cells = test: THP1 TREX1 KO inhibition assay (type 1 interferon response); settings: Homo sapiens, 144 h, type 1 interferon (QUANTI-LUC), 1 μM 5-aza-2′-deoxycytidine, six days
Method: Exemplary compounds were tested for their ability to alter the type 1 interferon response in THP1 Dual TREX1 KG cells treated with 5-aza-2′-deoxycytidine. Assay procedures and results are described below.
THP1 Dual TREX1 KG cells were purchased from Invivogen. The THP1-Dual™ KO-TREX1 cells were cultured in RPMI 1640, 10% heat-inactivated fetal bovine serum, 25 mM HEPES, 10 μg/mL blasticidin, and 100 μg/mL zeocin. THP1-Dual™ KO-TREX1 cells were treated with a dose titration of a test compound alone or in the presence of 1 μM 5-aza-2′-deoxycytidine (Sigma-Aldrich, cat #189825). Type 1 Interferon and cell viability were assessed after six days of treatment.
Stock solution of the test compound was prepared in DMSO followed by a three-fold dilution in DMSO. Additional 50× dilution was prepared in cell culture media for each dilution. 10 μL of diluted test compound was then added to a 96-well plate.
THP1-Dual™ KO-TREX1 cells were treated with either 1×PBS or 1 μM 5-aza-2′-deoxycytidine. […] of the THP1-Dual™ KO-TREX1 cells from either treatment were added to each well of the 96-well plate containing the test compound titration at 50,000 cells/well. Cells were incubated at 37° C., 5% CO2 in a humidified incubator for six days. Cells treated with 1 μM 5-aza-2′-deoxycytidine were added at the same density as above and incubated at 37° C., 5% CO2 in a humidified incubator for six days. On day six, 25 μL of cell supernatant was transferred to a 96-well white-walled plate, followed by addition to each well of 50 μL of QUANTI-LUC solution containing stabilizer. Luminescence was detected on a plate reader according to the manufacturer's instructions.
The remaining cells were assessed for cell viability by adding 25 μL of CellTiter-Glo (Promega, G9683) solution to each well, and being placed on a shaker for 10 minutes at room temperature. Luminescence was detected on a plate reader, according to the manufacturer's instructions.
In the tables “A” represents values≤0.050 μM; “B” represents values from >0.050 μM to ≤0.100 μM; “C” represents values from >0.100 μM to ≤0.250 μM; “D” represents values from >0.250 μM to ≤1 μM; “E” represents values>1 μM; and “NT”=not tested: […]

PC3 cells = test: Mitochondria toxicity assay with PC3 cells, cytotoxicity (Cell Titer Glo); settings: Homo sapiens, PC-3, 120 h, 5 days treatment
Method: (§1) PC3 cells were purchased from ATCC and cultured in F-12 Kaighn's modified medium (Hyclone), 10% heat-inactivated fetal bovine serum (Invitrogen), 1% Penicillin-Streptomycin (Invitrogen). PC3 cells were treated with a dose titration of a test compound on 96 well plates for 5 days at 37° C., 5% CO2 in a humidified incubator. The treatment plates are duplicated, one for in-cell ELISA for mitochondria proteins and one for cytotoxicity.
For the cytotoxicity assay, the medium from the cell viability plate was removed, 50 μL per well of Cell Titer Glo (Promega, G9683) was added. Then the cells incubated for 30 minutes at room temperature. Luminescence was read by Envision (PerkinElmer 2105).
(§2) In the table “A” represents values<1.0 μM; “B” represents values from >1.0 μM to ≤10.0 μM; “C” represents values from >10.0 μM to ≤50.0 μM; “D” represents values from >50.0 μM to ≤100.0 μM; and “E” represents values>100.0 μM.

[1] = test system: SDH-A (succinate dehydrogenase-A); test: Mitochondria toxicity assay with PC3 cells, in-cell ELISA SDH-A; settings: 5 days treatment
Method: (§3) Exemplary compounds were tested for inhibition of expression of mitochondria DNA encoded proteins COX-1 […]. SDH-A (succinate dehydrogenase-A) is a control mitochondria protein encoded by nuclear DNA. Reduction in COX-1 expression indicates off target inhibition of mitochondria DNA synthesis which leads to mitochondrial toxicity. Assay procedures and results are described below.
as §1
(§4) In-cell ELISA was performed to measure mitochondrial proteins using MitoBiogenesis In-Cell ELISA kit (Abcam) per manufacturer's instruction. The medium was aspirated from the compound treated cells, 100 μl per well of 4% paraformaldehyde (Solarbio) was added and cells were incubated at room temperature for 20 minutes. The cells were washed three times with PBS. 100 μl of 0.5% acetic acid was added per cell, and the cells were incubate at room temperature for 5 minutes. Cells were washed once with PBS. 100 μl per well of Permeabilization Buffer was added, and the cells incubate at room temperature for 30 minutes. The permeabilization buffer was removed and 200 μl per well 2× Blocking Buffer was added and the cells were incubated at room temperature for 2 hours. After removing the Blocking Buffer 100 μl per well of primary antibody to SDH-A or COX-1 was added, and the cells were incubated at 4° C. overnight. The primary antibody solution was removed and cells were washed 3 times with the Wash Buffer. 100 μl per well of AP- and HRP-labelled secondary antibodies was added, and the cells were incubated at room temperature for 1 hour. The cells were then washed 4 times with the Wash Buffer. For SDH-A detection, 100 μl per well AP Development Solution was added, and the cells were incubated at room temperature for 10 minutes. Cells were then read on CLARTO star^plus microplate reader (BMG Labtech) for kinetic readings at 405 nm for 5 minutes. […] The cells were then read on CLARTO star^plus microplate reader (BMG Labtech) for kinetic readings at 600 nm for 15 minutes.
as §2

[2] = Mitochondria toxicity assay with PC3 cells, in-cell ELISA COX-1; settings: 5 days treatment
Method: as §3, §1, §4, §2

In the case of `CC#C[C@]1(CO)O[C@@H](n2cnc3c(N)nc(F)nc32)C[C@@H]1O` [Compound 1, (2R,3S,5R)-5-(6-amino-2-fluoro-9H-purin-9-yl)-2-(hydroxymethyl)-2-(prop-1-yn-1-yl)tetrahydrofuran-3-ol], the IC50 (THP1-Dual KO-TREX1 cells) is reported as over 1000 nM.
`Cc1cn([C@H]2C[C@H](O)[C@](CO)(CCl)O2)c(=O)[nH]c1=O` [Compound 4, 1-((2R,4S,5R)-5-(chloromethyl)-4-hydroxy-5-(hydroxymethyl)tetrahydrofuran-2-yl)-5-methylpyrimidine-2,4(1H,3H)-dione] showed an IC50 (PC3 cells) of over 100 µM, an IC50 [1] of over 100 µM and an IC50 [2] of over 100 µM. The IC50 (THP1-Dual KO-TREX1 cells) was over 1000 nM.
`C#C[C@]1(CO)O[C@@H](n2cnc3c(N)nc(Cl)nc32)[C@@H](F)[C@@H]1O` [Compound 5, (2R,3R,4S,5R)-5-(6-amino-2-chloro-9H-purin-9-yl)-2-ethynyl-4-fluoro-2-(hydroxymethyl)tetrahydrofuran-3-ol] gave an IC50 (PC3 cells) of over 100 µM, an IC50 [1] of over 100 µM and an IC50 [2] of 10 to 50 µM. The IC50 (THP1-Dual KO-TREX1 cells) was over 1000 nM.
Work on `O=c1nc(NO)ccn1[C@H]1C[C@H](O)[C@](CO)(CCl)O1` [Compound 6, 1-((2R,4S,5R)-5-(chloromethyl)-4-hydroxy-5-(hydroxymethyl)tetrahydrofuran-2-yl)-4-(hydroxyamino)pyrimidin-2(1H)-one] yielded an IC50 (THP1-Dual KO-TREX1 cells) of over 1000 nM.
Work on `Cc1cn([C@H]2C[C@H](F)[C@](CO)(CCl)O2)c(=O)[nH]c1=O` [Compound 7, 1-((2R,4S,5R)-5-(chloromethyl)-4-fluoro-5-(hydroxymethyl)tetrahydrofuran-2-yl)-5-methylpyrimidine-2,4(1H,3H)-dione] yielded an IC50 (PC3 cells) of over 100 µM, an IC50 [1] of over 100 µM and an IC50 [2] of over 100 µM. The IC50 (THP1-Dual KO-TREX1 cells) was over 1000 nM.
`Nc1nc(F)nc2c1ncn2[C@H]1C[C@H](O)[C@](CO)(CCl)O1` [Compound 8, (2R,3S,5R)-5-(6-amino-2-fluoro-9H-purin-9-yl)-2-(chloromethyl)-2-(hydroxymethyl)tetrahydrofuran-3-ol] gave an IC50 (PC3 cells) of 1 to 10 µM, an IC50 [1] of 1 to 10 µM and an IC50 [2] of 1 to 10 µM. The IC50 (THP1-Dual KO-TREX1 cells) was over 1000 nM.
With `Cc1cn([C@@H]2O[C@@](CO)(CCl)[C@@H](O)[C@H]2F)c(=O)[nH]c1=O` [Compound 9, 1-((2R,3R,4R,5R)-5-(chloromethyl)-3-fluoro-4-hydroxy-5-(hydroxymethyl)tetrahydrofuran-2-yl)-5-methylpyrimidine-2,4(1H,3H)-dione] the IC50 (PC3 cells) was over 100 µM, the IC50 [1] was over 100 µM and the IC50 [2] was over 100 µM. For the same molecule, the IC50 (THP1-Dual KO-TREX1 cells) was over 1000 nM.
Molecule `Cc1cn([C@H]2C[C@H](O)[C@](CO)(CCl)O2)c(=O)nc1N` [Compound 11, 4-amino-1-((2R,4S,5R)-5-(chloromethyl)-4-hydroxy-5-(hydroxymethyl)tetrahydrofuran-2-yl)-5-methylpyrimidin-2(1H)-one] has an IC50 (PC3 cells) of over 100 µM, an IC50 [1] of over 100 µM and an IC50 [2] of over 100 µM. The IC50 (THP1-Dual KO-TREX1 cells) was over 1000 nM.
`C#C[C@@H]1[C@H](n2ccc(N)nc2=O)O[C@@](CO)(CCl)[C@H]1O` [Compound 17, 4-amino-1-((2R,3S,4S,5R)-5-(chloromethyl)-3-ethynyl-4-hydroxy-5-(hydroxymethyl)tetrahydrofuran-2-yl)pyrimidin-2(1H)-one] gave an IC50 (THP1-Dual KO-TREX1 cells) of over 1000 nM.
`Nc1cnn([C@H]2C[C@H](O)[C@](CO)(CCl)O2)c(=O)n1` [Compound 18, 5-amino-2-((2R,4S,5R)-5-(chloromethyl)-4-hydroxy-5-(hydroxymethyl)tetrahydrofuran-2-yl)-1,2,4-triazin-3(2H)-one] showed an IC50 (THP1-Dual KO-TREX1 cells) of over 1000 nM.
`C#C[C@@H]1[C@H](n2ccc(N)nc2=O)O[C@](C)(CO)[C@H]1O` [Compound 20, 4-amino-1-((2R,3S,4S,5R)-3-ethynyl-4-hydroxy-5-(hydroxymethyl)-5-methyltetrahydrofuran-2-yl)pyrimidin-2(1H)-one] showed an IC50 (THP1-Dual KO-TREX1 cells) of over 1000 nM.
Work on `Nc1nc(=O)n([C@H]2C[C@H](O)[C@](CO)(CF)O2)cc1F` [Compound 22, 4-amino-5-fluoro-1-((2R,4S,5R)-5-(fluoromethyl)-4-hydroxy-5-(hydroxymethyl)tetrahydrofuran-2-yl)pyrimidin-2(1H)-one] yielded an IC50 (PC3 cells) of over 100 µM, an IC50 [1] of over 100 µM and an IC50 [2] of over 100 µM. For the same molecule, the IC50 (THP1-Dual KO-TREX1 cells) was 50 to 100 nM.
In the case of `N#C[C@]1(CO)O[C@@H](n2cnc3c(N)nc(F)nc32)C[C@@H]1O` [Compound 26, (2R,3S,5R)-5-(6-amino-2-fluoro-9H-purin-9-yl)-3-hydroxy-2-(hydroxymethyl) tetrahydrofuran-2-carbonitrile], the IC50 (PC3 cells) is reported as over 100 µM, the IC50 [1] is reported as over 100 µM and the IC50 [2] is reported as 50 to 100 µM. It also gave an IC50 (THP1-Dual KO-TREX1 cells) of over 1000 nM.
`C#C[C@]1(CO)O[C@@H](n2cnc3c(N)ncnc32)C[C@@H]1O` [Compound 27, (2R,3S,5R)-5-(6-amino-9H-purin-9-yl)-2-ethynyl-2-(hydroxymethyl)tetrahydrofuran-3-ol] showed an IC50 (PC3 cells) of over 100 µM, an IC50 [1] of over 100 µM and an IC50 [2] of over 100 µM. The IC50 (THP1-Dual KO-TREX1 cells) was over 1000 nM.
In the case of `O=c1nc(NO)ccn1[C@@H]1O[C@@](CO)(CCl)[C@@H](O)[C@H]1F` [Compound 28, 1-((2R,3R,4R,5R)-5-(chloromethyl)-3-fluoro-4-hydroxy-5-(hydroxymethyl)tetrahydrofuran-2-yl)-4-(hydroxyamino)pyrimidin-2(1H)-one], the IC50 (THP1-Dual KO-TREX1 cells) is reported as over 1000 nM.
In the case of `O=c1ccn([C@@H]2O[C@@](CO)(CCl)[C@@H](O)[C@H]2F)c(=O)[nH]1` [Compound 29, 1-((2R,3R,4R,5R)-5-(chloromethyl)-3-fluoro-4-hydroxy-5-(hydroxymethyl)tetrahydrofuran-2-yl)pyrimidine-2,4(1H,3H)-dione], the IC50 (THP1-Dual KO-TREX1 cells) is reported as over 1000 nM.
`C#C[C@]1(CO)O[C@@H](n2ccc(N)nc2=O)[C@H](F)[C@@H]1O` [Compound 32, 4-amino-1-((2R,3R,4R,5R)-5-ethynyl-3-fluoro-4-hydroxy-5-(hydroxymethyl)tetrahydrofuran-2-yl)pyrimidin-2(1H)-one] showed an IC50 (THP1-Dual KO-TREX1 cells) of over 1000 nM.
`C#C[C@]1(CO)O[C@@H](n2ccc(=O)[nH]c2=O)[C@H](F)[C@@H]1O` [Compound 33, 1-((2R,3R,4R,5R)-5-ethynyl-3-fluoro-4-hydroxy-5-(hydroxymethyl)tetrahydro-furan-2-yl)pyrimidine-2,4(1H,3H)-dione] gave an IC50 (THP1-Dual KO-TREX1 cells) of over 1000 nM.
In the case of `O=c1ccn([C@H]2C[C@H](O)[C@](CO)(CCl)O2)c(=O)[nH]1` [Compound 34, 1-((2R,4S,5R)-5-(chloromethyl)-4-hydroxy-5-(hydroxymethyl)tetrahydro-furan-2-yl)pyrimidine-2,4(1H,3H)-dione], the IC50 (THP1-Dual KO-TREX1 cells) is reported as over 1000 nM.
With `C#C[C@]1(CO)O[C@@H](n2ccc(N)nc2=O)C[C@@H]1O` [Compound 41, 4-amino-1-((2R,4S,5R)-5-ethynyl-4-hydroxy-5-(hydroxymethyl)tetrahydro-furan-2-yl)pyrimidin-2(1H)-one] the IC50 (THP1-Dual KO-TREX1 cells) was over 1000 nM.
